Test results as given in patent US6451836B1, “Method of inhibiting liver glycogen phosphorylase with 2-alkylpyrrolidines” (Novo Nordisk A/S, priority 1995, dated 2002).
Read-outs that look alike come from different tables or passages of the source.

What was measured:
α-1,6-glucosidase [1] = molecular target: T1, α-1,6-glucosidase (Homo sapiens, UniProt P35573); details: From: Fleet et al. (Tetrahedron 20 (1986), 5685); read-out: 1,6-glucosidase, concentration resulting in half maximal activity (I.C.50); cited from earlier work
T1 sequence (P35573 whole entry): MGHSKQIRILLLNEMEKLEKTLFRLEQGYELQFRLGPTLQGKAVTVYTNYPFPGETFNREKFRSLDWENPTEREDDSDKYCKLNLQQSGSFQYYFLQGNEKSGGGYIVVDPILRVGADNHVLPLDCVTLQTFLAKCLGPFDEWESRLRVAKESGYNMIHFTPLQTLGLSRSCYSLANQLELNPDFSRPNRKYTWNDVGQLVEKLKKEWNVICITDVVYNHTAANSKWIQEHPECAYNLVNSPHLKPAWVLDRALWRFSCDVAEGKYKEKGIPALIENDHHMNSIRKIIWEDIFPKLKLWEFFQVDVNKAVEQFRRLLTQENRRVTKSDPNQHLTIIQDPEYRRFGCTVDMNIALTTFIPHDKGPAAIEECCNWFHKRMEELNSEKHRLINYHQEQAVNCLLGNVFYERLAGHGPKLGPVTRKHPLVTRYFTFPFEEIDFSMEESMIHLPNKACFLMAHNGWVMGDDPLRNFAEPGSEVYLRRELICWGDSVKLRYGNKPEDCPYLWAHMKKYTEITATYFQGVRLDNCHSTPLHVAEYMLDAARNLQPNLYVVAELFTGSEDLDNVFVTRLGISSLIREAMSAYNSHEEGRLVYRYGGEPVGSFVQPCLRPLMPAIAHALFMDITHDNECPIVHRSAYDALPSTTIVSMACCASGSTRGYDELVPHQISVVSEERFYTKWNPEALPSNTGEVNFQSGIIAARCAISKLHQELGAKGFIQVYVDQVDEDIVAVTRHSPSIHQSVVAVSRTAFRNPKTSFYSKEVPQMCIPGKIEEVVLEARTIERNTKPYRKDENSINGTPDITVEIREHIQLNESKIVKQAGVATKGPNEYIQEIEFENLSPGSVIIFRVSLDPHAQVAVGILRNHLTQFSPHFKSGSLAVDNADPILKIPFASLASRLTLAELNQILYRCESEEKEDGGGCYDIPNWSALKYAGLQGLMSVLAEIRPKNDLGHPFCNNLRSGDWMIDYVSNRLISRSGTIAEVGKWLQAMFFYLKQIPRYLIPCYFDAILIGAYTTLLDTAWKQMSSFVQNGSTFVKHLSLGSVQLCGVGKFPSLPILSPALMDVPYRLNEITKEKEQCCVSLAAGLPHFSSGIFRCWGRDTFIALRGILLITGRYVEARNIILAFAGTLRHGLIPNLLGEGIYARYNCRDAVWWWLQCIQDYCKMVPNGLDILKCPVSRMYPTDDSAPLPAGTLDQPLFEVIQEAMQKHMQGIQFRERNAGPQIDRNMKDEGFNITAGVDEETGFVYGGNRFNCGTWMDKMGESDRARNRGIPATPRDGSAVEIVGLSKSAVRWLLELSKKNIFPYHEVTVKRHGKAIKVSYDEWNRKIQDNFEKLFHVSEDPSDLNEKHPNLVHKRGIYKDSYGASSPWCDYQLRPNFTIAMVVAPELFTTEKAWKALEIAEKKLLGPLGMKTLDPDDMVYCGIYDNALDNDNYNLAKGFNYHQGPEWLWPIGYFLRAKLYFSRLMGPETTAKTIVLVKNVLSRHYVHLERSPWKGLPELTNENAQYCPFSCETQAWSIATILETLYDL

female ob/OB mice = assay: glucagon mediated increase in blood glucose in mice; assay type: in vivo; details: for Delta plasma glucose: glucagon s.c., female ob/OB mice fasted 3 hours, averages ± S.D., N = 5, control 6.3 ± 1.0; for reduction of blood glucose (in words): glucagon mediated increase in blood glucose in mice, Table 1
Description: For in vivo studies, female ob/OB mice (20 g) fasted for 3 hours were used. Test compounds or NaCl (0.9%; controls) were administered intraveneously (hereinafter designated i.v.). Glucagon were administered subcutaneously (herein-after designated s.c.) in order to increase hepatic glucose output derived from glycogen. Blood samples were drawn from the orbital vain and analyzed for glucose using a glucose oxidase method.

Rat hepatocytes = assay: baseline and glucagon stimulated glucose production from cultured liver cells; assay type: cell-based; details: for Glucose production without glucagon: relative to the basal glucose production (no addition 100%); for Glucose production without glucagon / Glucose production with glucagon (0.5 nM): 70 minutes; for Glucose production with glucagon (0.5 nM): relative to the basal glucose production (no addition 233%); for inhibition of hepatocyte glucose production (in words): basal and glucagon stimulated
Description: During the last 24 hours, the hepatocytes were cultured in the presence of high levels of insulin (5 nM) and glucose (15 mM), which result in the incorporation of glucose into glycogen. Therefore, at the time of the experiment, the cells mimic livers from fed animals. Experiments were initiated after 48 hours of culture by 2 times wash of cells and addition of a 20 mM HEPES experimental buffer including balanced salts, but without glucose. The test compound was added simultaneously with the experimental buffer. To some cultures, glucagon (0.5 nM) was added after 10 minutes in order to stimulate glucose production from liver cells. The glucose released into the media, reflecting the glucose production of the liver cells, was measured 70 minutes after the start of the experiment and standardized to cellular DNA content.

α-1,6-glucosidase [2] = molecular target: T1, α-1,6-glucosidase; assay: activity of the glycogen debranching enzyme, α-1,6-glucosidase; assay type: biochemical; details: read-out: 1,6-glucosidase, concentration resulting in half maximal activity (I.C.50)
Description: The activity of the glycogen debranching enzyme, α-1,6-glucosidase, was determined as described by Brown and Brown (1966; in : Meth. in Enzymology, 8, 515-524, Neufeld and Ginsburg (Eds.) Academic Press).

Phosphorylase = molecular target: T2, Phosphorylase (Rattus norvegicus, UniProt P09811); assay: activity of phosphorylase; assay type: biochemical; details: read-out: Phosphorlyase, concentration resulting in half maximal activity (I.C.50)
T2 sequence (P09811 2-850): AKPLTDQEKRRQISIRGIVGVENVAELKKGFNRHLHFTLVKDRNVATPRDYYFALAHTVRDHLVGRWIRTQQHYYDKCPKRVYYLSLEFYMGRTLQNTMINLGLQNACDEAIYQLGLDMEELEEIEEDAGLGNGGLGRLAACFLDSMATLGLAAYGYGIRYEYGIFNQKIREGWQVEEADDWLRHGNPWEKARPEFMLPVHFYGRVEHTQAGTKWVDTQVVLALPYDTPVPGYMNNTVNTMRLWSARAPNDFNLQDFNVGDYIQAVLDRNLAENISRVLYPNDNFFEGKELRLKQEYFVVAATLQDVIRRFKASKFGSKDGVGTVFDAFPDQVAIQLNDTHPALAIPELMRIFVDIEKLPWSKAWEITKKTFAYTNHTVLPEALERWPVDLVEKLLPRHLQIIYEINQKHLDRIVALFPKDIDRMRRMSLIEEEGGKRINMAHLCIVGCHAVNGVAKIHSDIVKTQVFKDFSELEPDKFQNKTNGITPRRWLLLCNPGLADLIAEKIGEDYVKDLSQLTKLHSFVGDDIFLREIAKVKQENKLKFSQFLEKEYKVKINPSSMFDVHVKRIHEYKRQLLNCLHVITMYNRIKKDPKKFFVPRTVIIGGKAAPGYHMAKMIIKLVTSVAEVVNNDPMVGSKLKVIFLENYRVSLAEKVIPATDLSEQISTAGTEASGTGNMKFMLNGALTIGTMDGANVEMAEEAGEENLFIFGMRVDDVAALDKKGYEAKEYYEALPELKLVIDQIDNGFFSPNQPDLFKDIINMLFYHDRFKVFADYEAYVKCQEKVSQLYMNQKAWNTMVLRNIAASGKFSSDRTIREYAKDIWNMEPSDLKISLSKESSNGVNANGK
Description: Phosphorylase was either purchased from Sigma or extracted from rat livers according to Stalmans et. al. (Eur.J.Biochem. 49 (1974), 415). The activity of phosphorylase was determined as described by Bergmeyer (1983; in: Meth. of Enzymatic Analysis, 2, 293-295, Weinheim, (ed.) Verlag Chemie).

type 2 diabetic patients = details: Sels et al. (Netherland J.Med. 44 (1994), 198); cited from earlier work

| Compound | IC50 (α-1,6-glucosidase [1]) | Delta plasma glucose (female ob/OB mice; 8 mg/kg i.v.) | reduction of blood glucose (in words) (female ob/OB mice) | Glucose production without glucagon (Rat hepatocytes; 1 μM) | Glucose production with glucagon (0.5 nM) (Rat hepatocytes; 1 μM) | inhibition of hepatocyte glucose production (in words) (Rat hepatocytes) | IC50 (α-1,6-glucosidase [2]) | Delta plasma glucose (female ob/OB mice; 50 mg/kg i.v.) | IC50 (Phosphorylase) | Glucose production without glucagon (Rat hepatocytes; 50 μM) | Glucose production with glucagon (0.5 nM) (Rat hepatocytes; 50 μM) | fasting plasma glucose after treatment (in words) (type 2 diabetic patients) |
| --- | --- | --- | --- | --- | --- | --- | --- | --- | --- | --- | --- | --- |
| Cl.OC[C@H]1NC[C@@H](O)[C@@H]1O [Compound 2, (2R,3R,4R)-3,4-Dihydroxy-2-(hydroxymethyl)pyrrolidine, hydrochloride] | 0.18 µM | 0.5 ± 0.6 mmol/L | potent principle for reducing blood glucose | 19% | 41% | inhibit basal and glucagon stimulated hepatocyte glucose production | – | – | – | – | – | – |
| OC[C@H]1NC[C@H](O)[C@@H](O)[C@@H]1O [dNOJ, 1-deoxynojirimycin] | – | – | unable to reduce blood glucose | – | – | insufficient to suppress hepatic glucose production | 1.1 µM | 5.7 ± 1.2 mmol/L | > 200 µM | 92% | 195% | – |
| OCCN1C[C@H](O)[C@@H](O)[C@H](O)[C@H]1CO [miglitol] | – | – | – | – | – | – | – | – | – | – | – | not reduced |
